The values below come from article PMC3064998, “In Vitro Selection of Cathepsin E-Activity-Enhancing Peptide Aptamers at Neutral pH” (International Journal of Peptides, 2011).

One experiment addresses T1, cathepsin E (Rattus norvegicus, UniProt P16228).
T1 construct: The enzyme CatE was prepared from rat spleen according to the method previously described; from tissue; host or cells: rat spleen
T1 sequence (P16228 59-398): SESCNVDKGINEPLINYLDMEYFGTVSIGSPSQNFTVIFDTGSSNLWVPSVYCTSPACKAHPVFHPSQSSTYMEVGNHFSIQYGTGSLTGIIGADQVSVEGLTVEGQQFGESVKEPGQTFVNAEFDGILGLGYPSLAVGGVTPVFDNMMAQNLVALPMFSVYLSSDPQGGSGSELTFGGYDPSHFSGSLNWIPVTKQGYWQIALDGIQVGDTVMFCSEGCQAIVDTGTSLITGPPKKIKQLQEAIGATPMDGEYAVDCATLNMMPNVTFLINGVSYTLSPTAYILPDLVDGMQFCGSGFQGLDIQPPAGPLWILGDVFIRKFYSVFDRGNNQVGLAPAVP
The experiment in a line: SPR (Biacore 2000) measurement of KD. The note with it: CatE immobilized on CM5 chip, running buffer 50 mM Tris-HCl, 100 mM NaCl, pH 7.4, four peptide concentrations, 1:1 binding with mass transfer model, unit M printed in b35 only, read-out: KD (dissociation constant). As for the experimental part: (§1) A fluorogenic substrate susceptible at neutral pH to the protease cathepsin E, which usually functions at acidic pH, was designed as per reference: [Nma-Gly-Gly-Arg-Arg-Ser-Gly-Thy-Cys-Gly(Dnp)-D-Arg-NH2]. The peptide was custom-synthesized at Peptide Institute (Osaka, Japan) and confirmed to be an effective substrate at pH 7.4. The peptide was dissolved in dimethyl sulfoxide (DMSO) at 10 mM and stored in a deep freezer until use. The enzyme CatE was prepared from rat spleen according to the method previously described and immobilized on N-hydroxysuccinimide-activated sepharose beads (GE Healthcare, USA) using the amine-coupling method and stored in, 100 mM phosphate buffer (pH 7.4) at 4°C.
An SPR instrument, Biacore 2000 (GE Healthcare, UK), was used for measuring KD for the binding of cathepsin E and selected peptides. Cathepsin E was immobilized onto Biacore sensor chip CM5 (GE Healthcare, UK) by the amine-coupling method using an Amine Coupling Kit (GE Healthcare, UK). Immobilization of cathepsin E was performed using running buffer (50 mM sodium acetate, 100 mM NaCl, pH 4.5). To determine dissociation constants, four different concentrations of selected peptides were used for the interaction. […] The binding data were analyzed with the 1 : 1 binding with mass transfer model in the BIAevaluation software version 4 : 1 (Biacore).

A further experiment relates to cathepsin E (CatE). The experiment can be described thus: CatE-activity-enhancement assay at neutral pH (fluorogenic substrate). It counts as biochemical, rat. The note with it: pH 7.4; for Activities (%) Asy (CatE activity with chemically synthesized peptide): CatE 20 nM : peptide 1:1; for Activities (%) Asy (CatE activity with chemically synthesized peptide) / Activities (%) Adp (CatE activity with in vitro translated peptide): 50 mM Tris-HCl, 100 mM NaCl, preincubation 25°C 10 min, substrate 5 μM, 37°C 1 h, fluorescence ex 340/em 440 nm, 100% = CatE + substrate without peptide; for Activities (%) Adp (CatE activity with in vitro translated peptide): CatE 20 nM : peptide 1:1 (20 nM), three independent experiments. The method, then:
as §1
CatE-activation by peptide aptamers was assayed by the method described previously but with a few modifications. Briefly, the CatE (20 nM) solution preincubated with a peptide aptamer in a 1 : 1 molar ratio in the selection buffer (50 mM Tris-HCl, 100 mM NaCl, pH 7.4) at 25°C for 10 min. was combined with the fluorogenic substrate (5 μM) and the enzyme reaction performed at 37°C for 1 h. The reaction product was measured by fluorescence intensity at 440 nm with an excitation wavelength of 340 nm using a fluorescence microplate reader, Infinite 200 (Tecan, Japan). The percentage of activation (A) was calculated by fitting the data to the following equation:
(1) A=100×Sf−Bf/Cf−Bf [% activation], where Sf represents the fluorescence intensity of the positive reaction consisting of the enzyme (CatE), the fluorogenic substrate, and a possible peptide activator; C f is that of the control reaction mixture consisting of CatE and fluorogenic substrate (without peptide activator); B f is the background fluorescence of the negative reaction mixture consisting of only the fluorogenic substrate.

Experiment [1] has as its target T2, S3 (p4038) peptide aptamer.
T2 chain: IGCEERSFPNIIIIIG
The experiment can be described thus: SPR.

Experiment [2] concerns the target T3, P1 (p2006) peptide aptamer.
T3 chain: VGCDFMYV
The experiment in a line: SPR.

In experiment [3] the target is T4, P3 (p3006) peptide aptamer.
T4 chain: IEGRVGCDFMYVG
The experiment in a line: SPR.

Ends that are not written are not given here.

Consider IEGRVGCDFMYVG [P3], for which the dissociation constant Kd at cathepsin E was 0.334 µM.

IGCEERSFPNIIIIIG [S3]: the Kd at cathepsin E turned out to be 0.389 µM.

Regarding KGPPPCPC [P2], in the experiment on cathepsin E (CatE), the “Activities (%) Asy (CatE activity with chemically synthesized peptide)” value was 110 ± 4% and the “Activities (%) Adp (CatE activity with in vitro translated peptide)” value (“Activities (%) Adp” below) amounted to 128 ± 20%. The “enhancement of CatE-activity (increase over control)” value in the experiment with cathepsin E (CatE) (in vitro translation synthesized peptides) is listed as 10 to 30%.

As to PGIKPPPCIIIIG [S2], in the experiment on cathepsin E (CatE), the “Activities (%) Asy (CatE activity with chemically synthesized peptide)” value worked out at 144.5 ± 11% and the “Activities (%) Adp” value is on record as 180 ± 10%.

For the molecule SPIISHIVGCDPPSCG [S1], in the experiment on cathepsin E (CatE), the “Activities (%) Adp” value came out at 160 ± 20%.

B1: Cathepsin E (protein)
chain: SESCNVDKGINEPLINYLDMEYFGTVSIGSPSQNFTVIFDTGSSNLWVPSVYCTSPACKAHPVFHPSQSSTYMEVGNHFSIQYGTGSLTGIIGADQVSVEGLTVEGQQFGESVKEPGQTFVNAEFDGILGLGYPSLAVGGVTPVFDNMMAQNLVALPMFSVYLSSDPQGGSGSELTFGGYDPSHFSGSLNWIPVTKQGYWQIALDGIQVGDTVMFCSEGCQAIVDTGTSLITGPPKKIKQLQEAIGATPMDGEYAVDCATLNMMPNVTFLINGVSYTLSPTAYILPDLVDGMQFCGSGFQGLDIQPPAGPLWILGDVFIRKFYSVFDRGNNQVGLAPAVP
Take B1: the Kd in experiment [1] was 0.389 µM; in experiment [2], approximately 10 µM; in experiment [3], 0.334 µM.
